Experimental data taken from ChEMBL document CHEMBL2086263, “Synthesis and SAR studies of 3-allyl-4-prenyloxyaniline amides as potent 15-lipoxygenase inhibitors” (Bioorg Med Chem, 2012).

Key:
[1] = Inhibition of soybean 15-lipoxygenase using linoleic acid as substrate incubated for 5 mins prior to substrate addition measured after 7 mins by DMAB-MBTH method; parameters: species or system Glycine max
[2] = test system: Radical scavenging activity; assay: Antioxidant activity assessed as inhibition of DPPH radical scavenging activity after 30 mins by spectrophotometry; type: functional

Structure (SMILES) | IC50 [1] | IC50 [2]
C=CCOc1ccc(NC(=O)C2CCCC2)cc1CC=C | 58 µM | 
C=CCOc1ccc(NC(=O)C2CC2)cc1CC=C | 54.1 µM | 
C=CCOc1ccc(NC(C)=O)cc1CC=C | 67.8 µM | 
C=CCc1cc(NC(=O)C2CCCCC2)ccc1OC/C=C(\C)CC/C=C(\C)CCC=C(C)C | 5.2 µM | 529 µM
C=CCc1cc(NC(=O)C2CCCC2)ccc1OC/C=C(\C)CC/C=C(\C)CCC=C(C)C | 35.7 µM | 461 µM
C=CCc1cc(NC(=O)C2CCC2)ccc1OC/C=C(\C)CC/C=C(\C)CCC=C(C)C | 2.1 µM | 140 µM
C=CCc1cc(NC(=O)C2CC2)ccc1OC/C=C(\C)CC/C=C(\C)CCC=C(C)C | 16.5 µM | 8.9 µM
C=CCc1cc(NC(C)=O)ccc1OC/C=C(\C)CC/C=C(\C)CCC=C(C)C | 24.8 µM | 225 µM
C=CCc1cc(NC(=O)C23CC4CC(CC(C4)C2)C3)ccc1OCC=C(C)C | 10.3 µM | 105 µM
Cc1nc(N2CCN(C)CC2)nc2c1Nc1ccccc1S2 | 28.2 µM | 

Continued, values first:

IC50 [1] | IC50 [2] | Structure (SMILES)
9.8 µM |  | C=CCOc1ccc(NC(=O)C23CC4CC(CC(C4)C2)C3)cc1CC=C
18.5 µM |  | C=CCOc1ccc(NC(=O)C2CCCCC2)cc1CC=C
19.6 µM |  | C=CCOc1ccc(NC(=O)C2CCC2)cc1CC=C
0.69 µM | 114 µM | C=CCc1cc(NC(=O)C23CC4CC(CC(C4)C2)C3)ccc1OC/C=C(\C)CC/C=C(\C)CCC=C(C)C
3.6 µM | 121 µM | C=CCc1cc(NC(=O)C23CC4CC(CC(C4)C2)C3)ccc1OC/C=C(\C)CCC=C(C)C
27.8 µM |  | C=CCOc1ccc(NC(=O)C23CC4CC(CC(C4)C2)C3)cc1
37.1 µM |  | O=C(O)/C=C/c1ccc(O)c(O)c1 [CAFFEIC ACID]
 | 6.2 µM | CC(Cc1ccc(O)c(O)c1)C(C)Cc1ccc(O)c(O)c1 (stereo unspecified) [NORDIHYDROGUAIARETIC ACID]
